{"source": "patent US20040224995A1", "about": "(University of North Texas Health Science Center at Fort …, priority 2003, published 2004)", "key": {"HT-22 cells": {"tested_on": "HT-22 cells", "assay": "HT-22 cell viability during glutamate exposure (calcein AM assay)", "format": "cell-based", "conditions": "for neuroprotective effect of prostaglandins against glutamate toxicity: added 24 h before glutamate (15 mM), viability 15 h later", "excerpt": "Although not wanting to be bound by theory, the toxicity of glutamate in HT-22 (32) and C6 glioma (33) cell lines is mediated through oxidative stress. HT-22 cells lack ionotropic N-methyl-D-aspartate (“NMDA”) glutamate receptors, and the glutamate-induced cell death appears to occur via a slow onset oxidative stress (32,34,35). Glutamate blocks cystine uptake by inhibiting the glutamate/cystine antiporter in both HT-22 (32) and C6 glioma (33) cell lines. Since cysteine is required for glutathione (“GSH”) synthesis, the intracellular concentration of GSH decreases as a consequence. BSO depletes intracellular glutathione by inhibiting γ-glutamylcysteine synthetase, the rate-limiting enzyme in glutathione synthesis (33). […] Troglitazone further protected HT-22 (FIG. 14) and RGC-5 (FIG. 15) against BSO. The cell viability was taken at time points around about 14 to 24 hours post-insult time. In some of the experiments, the viability of cells was determined using 2.5 μM calcein AM assay in phosphate-buffered saline (PBS 1×). After 25 minutes of incubation, live cells were distinguished by the presence of intracellular esterase activity, which cleaves the calcein AM dye, producing a bright green fluorescence, as shown in FIG. 22. Viability was measured in Relative Fluorescent Units (“RFU”), and expressed as percentage of vehicle-treated control values.\n15d-PGJ2 and two TZD's (e.g. troglitazone and ciglitazone) were tested for their ability to protect HT-22 cells against glutamate toxicity. […] HT-22 cells were treated with 15-dPGJ2 twenty-four hours prior to a glutamate insult (15 mM). […] The data of FIG. 24 was quantified using the calcein AM assay (see FIG. 22). Results are expressed in % survival of the control (non-glutamate-treated) cultures. DMSO received the vehicle only for 15d-PGJ2. Shown are mean±SEM for 6. The asterisk (“*”) indicates p<0.05 vs. respective control.\nIn order to conduct these experiments, the following compounds: PGA1; PGA2; PGJ2; Δ^12PGJ2; and 15d-PGJ2 were ordered from Biomol, Plymouth Meeting, Pa. HT-22, an immortalized mouse hippocampal cell line, C6 rat glioma, RGC-5 retinal ganglion cells were used. Cells were grown to confluence in DMEM media, and supplemented with 10% charcoal/dextran-treated fetal bovine serum (“FBS”), and […] gentamycin at 37° C. under 95% air, 5% CO2. HT-22, C6, and RGC-5 cells were plated at a density of 50,000, 35,000, and 10,000 cells/ml, respectively, in 96-well plates. Wells were pre-treated with cyclopentenone PGs at various times prior to being subjected to glutamate, hydrogen peroxide (H2O2), or BSO insults.\nThe WY-14643, Ciglitazone, Troglitazone, 9-cis retinoic acid, and 15d-PGJ2 compounds were purchased from Biomol (Plymouth Meeting, Pa.). L-165041 and L-783483 were kindly provided by Merck Laboratories. The cell lines used were HT-22, an immortalized mouse hippocampal cell line, and SK—N—SH, a human neuroblastoma cell line. The HT-22 cells were obtained from David Schubert (Salk Institute, San Diego, Calif.). The HT-22 line was originally selected from HT-4 cells based on glutamate sensitivity. HT-4 cells were immortalized from primary hippocampal neurons using a temperature-sensitive SV-40 T antigen (Morimoto and Koshland, 1990). SK—N—SH were obtained from ATCC (Manassas, Va.). HT-22 and SK—N—SH cells were grown to confluence in DMEM and RPMI-1640 media, respectively, and supplemented with 10% charcoal/dextran-treated fetal bovine serum (FBS), and 5 mg/ml gentamycin at 37° C. under 95% air, 5% CO2. HT-22 cells were plated at a density of 50,000 cells/ml (5,000 cells/well), and SK—N—SH were plated at a density of 120,000 to 150,000 cells/ml (12,000 to 15,000 cells/well) in 96-well plates. In most studies, wells were pre-treated with PPAR ligands over a wide dose range at various times prior to being subjected to either glutamate, hydrogen peroxide (H2O2), or serum deprivation insults. In some studies, the insults were applied prior to the addition of the PPAR ligand. […]"}, "PPAR-γ": {"molecular_target": "PPAR-γ", "conditions": "cited from earlier work"}, "PPAR alpha": {"tested_on": "PPAR alpha", "conditions": "Issemann and Green, 1990; read-out: EC50 for activation of PPAR alpha; cited from earlier work"}, "[1]": {"tested_on": "infarct after MCA occlusion", "conditions": "intraventricular, 660 ng, 30 min before MCA occlusion; Satoh et al.; cited from earlier work"}, "PPARγ": {"tested_on": "PPARγ", "conditions": "Berger et al., 1999; cited from earlier work"}, "PPAR-β": {"molecular_target": "T1, PPAR-β (Homo sapiens, UniProt Q03181)", "T1 sequence (Q03181 1-441)": "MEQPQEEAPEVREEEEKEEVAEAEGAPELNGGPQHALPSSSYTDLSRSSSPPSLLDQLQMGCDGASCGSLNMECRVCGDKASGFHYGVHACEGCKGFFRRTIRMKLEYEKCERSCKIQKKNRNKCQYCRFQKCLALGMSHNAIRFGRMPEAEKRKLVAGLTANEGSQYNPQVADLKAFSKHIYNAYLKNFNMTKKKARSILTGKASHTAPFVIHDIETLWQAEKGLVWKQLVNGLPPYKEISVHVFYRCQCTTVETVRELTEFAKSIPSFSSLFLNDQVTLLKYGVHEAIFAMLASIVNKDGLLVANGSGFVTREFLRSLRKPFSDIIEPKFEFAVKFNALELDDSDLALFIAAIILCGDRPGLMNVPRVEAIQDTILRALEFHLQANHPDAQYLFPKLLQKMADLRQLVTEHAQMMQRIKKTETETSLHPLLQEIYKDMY", "conditions": "Berger et al., 1999; read-out: EC50 for activation of PPAR-β; cited from earlier work"}}}
{"smiles": "CC1=C(/C=C/C(C)=C\\C=C\\C(C)=C\\C(=O)O)C(C)(C)CCC1", "note": "[9-cis retinoic acid]", "values": [{"measurement": "effect of adding 9-cis retinoic acid on neuroprotection by 15d-PGJ2", "setting": "HT-22 cells; 1 μM 9-cis retinoic acid with 15d-PGJ2, glutamate exposure", "result": "did not alter the neuroprotective effects"}]}
{"smiles": "CCCCC[C@H](O)/C=C/[C@H]1C=CC(=O)[C@@H]1C/C=C\\CCCC(=O)O", "note": "[PGA2]", "values": [{"measurement": "neuroprotective effect of prostaglandins against glutamate toxicity", "setting": "HT-22 cells", "result": "neuroprotective effects"}]}
{"smiles": "CC(C)(c1ccc(OCC2CO2)cc1)c1ccc(OCC2CO2)cc1", "note": "(stereo not shown) [BADGE, Bisphenol diglycidyl ether]", "values": [{"measurement": "toxicity in the cell model", "setting": "HT-22 cells; at concentrations close to Ki (100 μM)", "result": "showed some toxicity"}, {"measurement": "Ki", "setting": "PPAR-γ; read-out: Ki value as PPARγ antagonist", "result": 100, "unit": "µM"}]}
{"smiles": "Cc1cccc(Nc2cc(Cl)nc(SCC(=O)O)n2)c1C", "note": "[WY 14,643]", "values": [{"measurement": "effect at the highest concentration on glutamate toxicity", "setting": "HT-22 cells; highest concentration tested, glutamate 20 mM", "result": "enhanced glutamate toxicity"}, {"measurement": "prevention of glutamate-induced cell death", "setting": "HT-22 cells; pretreatment 24 h, 1 to 40 μM, glutamate 20 mM", "result": "failed to prevent glutamate-induced cell death"}, {"measurement": "EC50", "setting": "PPAR alpha", "result": "~1500", "unit": "nM"}]}
{"smiles": "COC(=O)CCCCC/C=C1/C(=O)C=C[C@H]1CCCCCCc1ccc(C)cc1", "note": "[NEPP-11]", "values": [{"measurement": "decrease of infarct volume", "setting": "[1]", "result": "about 50%"}]}
{"smiles": "CCCc1c(OCCCOc2ccc(OCC(=O)O)cc2)ccc(C(C)=O)c1O", "note": "[L-165041]", "values": [{"measurement": "effect on glutamate toxicity", "setting": "HT-22 cells; 1 nM to 50 μM, pretreated 24 h, glutamate 20 mM", "result": "failed to affect glutamate toxicity"}, {"measurement": "concentrations inducing weak activity of PPARγ", "setting": "PPARγ", "result": "> 51", "unit": "µM"}, {"measurement": "EC50", "setting": "PPAR-β", "result": "~500", "unit": "nM"}]}
{"smiles": "CCCCC[C@H](O)/C=C/C1=C(C/C=C\\CCCC(=O)O)C(=O)CC1", "note": "[PGB2]", "values": [{"measurement": "neuroprotective effect of prostaglandins against glutamate toxicity", "setting": "HT-22 cells", "result": "did not display any neuroprotective effects"}]}
{"smiles": "CC1(COc2ccc(CC3SC(=O)NC3=O)cc2)CCCCC1", "note": "(stereo not shown) [ciglitazone, 5-[4-(1-methylcyclohexylmethoxy)benzyl]-thiazolidine-2,4-dione]", "values": [{"measurement": "neuroprotective effects", "setting": "HT-22 cells; concentrations up to 40 μM", "result": "did not have any neuroprotective effects"}, {"measurement": "protection against glutamate toxicity", "setting": "HT-22 cells; pretreatment at various concentrations", "result": "failed to protect"}, {"measurement": "affinity for PPAR-γ", "setting": "PPAR-γ; similar to that of 15d-PGJ2", "result": "low micromolar (μM) range"}]}
{"smiles": "CCCCC[C@H](O)/C=C/[C@H]1C=CC(=O)[C@@H]1CCCCCCC(=O)O", "note": "[PGA1]", "values": [{"measurement": "neuroprotective effect of prostaglandins against glutamate toxicity", "setting": "HT-22 cells", "result": "neuroprotective effects"}]}
